Patent US12201848B2, “Device and methods for use in removal of bio-film and treatment of halitosis” (priority 2016, dated 2025)
“Also recorded” adds a separate entry of the source.

Experiments:
P. gingivalis ATCC 33277 = assay: Lethal photosensitization of P. Gingivalis (colony count); format: cell-based
Description: Suitable stain dosages for providing lethal sensitization of oral pathogens are determined in vitro by the following procedure. An objective is to determine the minimum duration of light exposure and minimum agent dilution required to achieve at least a 50% reduction in bacteria counts. Experimental tests are performed on two common pathogens using a continuously working, high intensity, red filtered halogen lamp. Red light from the filtered halogen lamp is transmitted through a flexible light guide to radiate downwardly onto petri dishes containing samples of live bacteria of species Porphyromonas Gingivalis and Prevotella Intermedia using the protocols described below. Bacteria. Prevoltella Intermedia is isolated from patient sample material, identified in the laboratory using standard diagnostic test systems (Remel Inc., Lenexa, Kans., USA) and is maintained by twice-weekly subculture in thioglycollate medium (Becton Dickinson and Co, Sparks, Md., USA). P. gingivalis ATCC 33277 obtained from Remel Inc., is maintained by a twice-weekly subculture on CDC anaerobe blood agar (Becton Dickinson and Co, USA) and in thioglycollate medium (Becton Dickinson and Co, USA). Light Source. […] The light output power density measured at 3 cm distance from the end of the light guide with filter is about 50 milliwatts/cm2. […]

[1] = test system: Porphyromonas Gingivalis and Prevotella Intermedia; assay: Lethal photosensitization of oral pathogens by methylene blue and red-filtered halogen light (colony count); format: cell-based; settings: for Percent of Living Bacteria: mean of both species +/- SD
Description: Suitable stain dosages for providing lethal sensitization of oral pathogens are determined in vitro by the following procedure. An objective is to determine the minimum duration of light exposure and minimum agent dilution required to achieve at least a 50% reduction in bacteria counts. Experimental tests are performed on two common pathogens using a continuously working, high intensity, red filtered halogen lamp. Red light from the filtered halogen lamp is transmitted through a flexible light guide to radiate downwardly onto petri dishes containing samples of live bacteria of species Porphyromonas Gingivalis and Prevotella Intermedia using the protocols described below. Bacteria. Prevoltella Intermedia is isolated from patient sample material, identified in the laboratory using standard diagnostic test systems (Remel Inc., Lenexa, Kans., USA) and is maintained by twice-weekly subculture in thioglycollate medium (Becton Dickinson and Co, Sparks, Md., USA). P. gingivalis ATCC 33277 obtained from Remel Inc., is maintained by a twice-weekly subculture on CDC anaerobe blood agar (Becton Dickinson and Co, USA) and in thioglycollate medium (Becton Dickinson and Co, USA). Light Source. The source for light energy is a continuously working, high intensity halogen lamp having a built-in 250-Watt quartz halogen light source, model I-250 supplied by Medithon, New York, N.Y., USA. Such lights are customarily employed for ear, nose or throat procedures. The light is transmitted through a flexible light guide and filtered to maintain maximum energy output at wavelengths in the vicinity of about 650 nm using a broadband red filter (Edmund Optics Inc., Barrington, N.J., USA). The light output power density measured at 3 cm distance from the end of the light guide with filter is about 50 milliwatts/cm2. Photosensitizer. […] Lethal photosensitization of P. Intermedia. Petri dishes containing CDC anaerobe blood agar (Becton Dickinson and Co, USA) are inoculated with 0.5 ml of broth containing 5×10^5 CFU/ml and left closed at room temperature for about 10 minutes to let the broth penetrate the agar media. […] Only plates with concentrations of 0.01%, and 0.025% are used in the experiment with 20 min light exposure. Four plates are used for each experiment. […] The controls are covered to protect them from ambient light. […] A total of 108 subcultures is used for the experiment. Plates are incubated in anaerobic conditions in the jars using anaerobic pack kits (BBL GasPak Plus, Becton Dickinson and Co, Sparks, Md., USA) at 37° C. for 24 hours. Samples of the resulting culture growth are taken from each plate with sterile […] standard loop, dispensed in 1 ml of sterile NS and placed at the same media. Cultures are incubated at anaerobic conditions at 37° C. for another 24 hours, and after that the resulting colony count is performed on each plate. Lethal photosensitization of P. Gingivalis. Serial dilutions of the P. gingivalis culture are prepared from the initial culture preserved on plates using 1:L sterile standard loop (Becton Dickinson and Co, USA) and sterile NS. A Vitek calorimeter (Hach Company, Loveland, Colo., USA) is used to achieve a final concentration of about 5×10^3 CFU/ml from an initial 0.5 standard McFarland suspension of 10^8 CFU/ml. Plates containing CDC anaerobic blood agar (Becton Dickinson and Co, USA) are inoculated with the resulting suspension using sterile 10:L standard loops (Becton Dickinson and Co, USA). […] Plates are also incubated at 37° C. in the tightly closed jars supplied with anaerobic pack kits (BBL GasPak Plus, Becton Dickinson and Co, USA) for 24 hours, and the resulting colony count is performed on each plate.

Question: Which “bacterial killing without light exposure” value (P. gingivalis ATCC 33277; methylene blue 0.01%, no light, P. gingivalis culture) does the source give for `CN(C)c1ccc2nc3ccc(=[N+](C)C)cc-3sc2c1` [methylene blue] here?
Answer: statistically significant bacterial killing

Question: And the “bactericidal effect on P. gingivalis” value (P. gingivalis ATCC 33277; methylene blue 0.1%)?
Answer: bactericidal effect

Question: And the “reduction of bacteria without exposure to light” value ([1]; 0.05% methylene blue alone)?
Answer: insignificant

Question: What about the “difference between exposure for 10 and 20 minutes” value ([1]; either species, any concentration of methylene blue) of the same molecule?
Answer: No statistically significant difference

Question: And the “killing of bacteria without halogen light” value ([1]; methylene blue 0.001% or 0.025%, without halogen light)?
Answer: nor concentrations of methylene blue of 0.001% or 0.025%, without halogen light, appeared to be effective in killing bacteria

Question: What about the “bactericidal effect with red-filtered light” value ([1]; methylene blue 0.01% or higher, exposure less than 10 minutes, accumulated energy 30 J/cm2, both species) of the same molecule?
Answer: bactericidal effect

Question: And the “Percent of Living Bacteria” value ([1]; methylene blue 0.01%, exposure to red light 0)?
Answer: 70 +/− 11%

Question: And the “Percent of Living Bacteria” value ([1]; methylene blue 0.01%, red light 1 min)?
Answer: 73 +/− 6%

Question: What about the “Percent of Living Bacteria” value ([1]; methylene blue 0.01%, red light 5 min) of the same molecule?
Answer: 69 +/− 7%

Question: What about the “Percent of Living Bacteria” value ([1]; methylene blue 0.01%, red light 10 min) of the same molecule?
Answer: 55 +/− 6%

Question: And the “Percent of Living Bacteria” value ([1]; methylene blue 0.01%, red light 20 min)?
Answer: 51 +/− 4%

Question: And the “Percent of Living Bacteria” value ([1]; methylene blue 0.025%, exposure to red light 0)?
Answer: 75 +/− 14%

Question: And the “reduction in bacteria counts” value ([1]; methylene blue 0.025%, light exposure 5 min)?
Answer: Significant reduction in bacteria counts

Question: What about the “Percent of Living Bacteria” value ([1]; methylene blue 0.025%, red light 1 min) of the same molecule?
Answer: 67 +/− 4%

Question: What about the “Percent of Living Bacteria” value ([1]; methylene blue 0.025%, red light 5 min) of the same molecule?
Answer: 47 +/− 6%

Question: What about the “Percent of Living Bacteria” value ([1]; methylene blue 0.025%, red light 10 min) of the same molecule?
Answer: 48 +/− 8%

Question: What about the “Percent of Living Bacteria” value ([1]; methylene blue 0.025%, red light 20 min) of the same molecule?
Answer: 49 +/− 5%

Question: What about the “killing with duration of red light” value ([1]; methylene blue 0.025%, time intervals 5 and 10 min) of the same molecule?
Answer: statistically significant increased killing with duration

Question: And the “reduction in bacteria counts” value ([1]; methylene blue 0.05% and higher, light exposure 1 min)?
Answer: Significant reduction in bacteria counts

Question: And the “Percent of Living Bacteria” value ([1]; methylene blue 0.05%, exposure to red light 0)?
Answer: 68 +/− 12%

Question: What about the “Percent of Living Bacteria” value ([1]; methylene blue 0.05%, red light 1 min) of the same molecule?
Answer: 53 +/− 10%

Question: What about the “Percent of Living Bacteria” value ([1]; methylene blue 0.05%, red light 5 min) of the same molecule?
Answer: 32 +/− 7%

Question: What about the “Percent of Living Bacteria” value ([1]; methylene blue 0.05%, red light 10 min) of the same molecule?
Answer: 32 +/− 9%

Question: And the “killing with duration of red light” value ([1]; methylene blue 0.05%, time intervals 1 min, 5 min and 10 min)?
Answer: statistically significant increased killing with duration

Question: And the bacterial count reduction ([1]; methylene blue 0.075% and 0.1%, light exposure 1 min, both cultures)?
Answer: statistically significant bacterial count reduction

Question: And the “bactericidal effect without light exposure” value ([1]; methylene blue 0.075% and 0.1%, no red light)?
Answer: significant bactericidal effect; also recorded: significantly bactericidal

Question: And the “Percent of Living Bacteria” value ([1]; methylene blue 0.075%, exposure to red light 0)?
Answer: 51 +/− 10%

Question: What about the “Percent of Living Bacteria” value ([1]; methylene blue 0.075%, red light 1 min) of the same molecule?
Answer: 45 +/− 5%

Question: What about the “Percent of Living Bacteria” value ([1]; methylene blue 0.075%, red light 5 min) of the same molecule?
Answer: 26 +/− 5%

Question: And the “Percent of Living Bacteria” value ([1]; methylene blue 0.075%, red light 10 min)?
Answer: 25 +/− 5%

Question: What about the “Percent of Living Bacteria” value ([1]; methylene blue 0.1%, exposure to red light 0) of the same molecule?
Answer: 35 +/− 9%

Question: And the “Percent of Living Bacteria” value ([1]; methylene blue 0.1%, red light 1 min)?
Answer: 39 +/− 12%

Question: What about the “Percent of Living Bacteria” value ([1]; methylene blue 0.1%, red light 5 min) of the same molecule?
Answer: 28 +/− 9%

Question: What about the “Percent of Living Bacteria” value ([1]; methylene blue 0.1%, red light 10 min) of the same molecule?
Answer: 24 +/− 4%
